Test results from PMC10218234, “Design, Synthesis and Antitumor Activity of 1H-indazole-3-amine Derivatives” (International Journal of Molecular Sciences, 2023).
Read-outs that look alike come from different tables or passages of the source.

How the values were obtained:
PC-3 cells = assay: MTT anti-proliferative assay, PC-3; type: cell-based; conditions: Homo sapiens, PC-3, 48 h
Procedure: (§1) The antiproliferative activity of the target indazole derivatives was evaluated against a panel of human cancer cell lines (human chronic myeloid leukemia cell lines K562; human lung cancer cell lines A549; human prostate cancer cell lines PC-3; human hepatoma cell lines HepG-2) in vitro, and human embryonic kidney cell lines HEK-293 were used to evaluate the cytotoxicity of a normal cell with high activity derivatives by MTT assay. Moreover, 5-fluorouracil (5-Fu), a broad-spectrum drug antitumor drug with therapeutic effects on various cancers, was used as a positive control.
(§2) Lung (A549), chronic myeloid leukemia (K562), prostate (PC3), and live (Hep-G2) cells were purchased from the Cell Bank of the Chinese Academy of Sciences (Kunming, China). A549, K562, and PC-3 cells were cultured in RPMI-1640 medium and the liver cells Hep-G2 were cultured in MEM medium. All mediums were supplemented with 10% FBS, 100 μg/mL penicillin and 100 μg/mL streptomycin. All cells were cultivated in a 5% CO2 incubator at 37 °C.
(§3) Exponentially growing cells were seeded at a density of 5000 cells per well in 96-well plates containing 100 μL of fresh growth medium. After allowing the cells to attach for 24 h, target compounds were added. After incubation for 48 h, viable cells were stained with MTT (0.5 mg/mL) for 4 h, and the produced formazan crystals were dissolved with 150 µL of dimethyl sulfoxide. Absorbance was measured at 490 nm using an automated microplate reader (Tecan, Infinite M200 Pro, Männedorf, Switzerland). The relative cell viability was calculated according to the following equation: Cell viability%=experimental OD value/control OD value×100%Cell inhibition%=control OD value−experimental OD value/control OD value×100%
(§4) Cell inhibition%=control OD value−experimental OD value/control OD value×100%

A549 cells = assay: MTT anti-proliferative assay, A549; type: cell-based; conditions: Homo sapiens, read-out: IC50 ± SD, A549
Procedure: as §1, §2
as §3, with “To investigate the anticancer activity of indazole derivatives, A549, K562, PC3, and Hep-G2 cells were treated with targets compounds respectively for 48 h in a range of concentrations (from 0.625 to 10 μM) and subjected to a proliferation assay using the MTT assay. Exponentially” for “Exponentially”
as §4

K562 cells = assay: MTT anti-proliferative assay, K562; type: cell-based; conditions: Homo sapiens, read-out: IC50 ± SD, K562
Procedure: as §1, §2
as §3, with “To investigate the anticancer activity of indazole derivatives, A549, K562, PC3, and Hep-G2 cells were treated with targets compounds respectively for 48 h in a range of concentrations (from 0.625 to 10 μM) and subjected to a proliferation assay using the MTT assay. Exponentially” for “Exponentially”
as §4

Hep-G2 cells = assay: MTT anti-proliferative assay, Hep-G2; type: cell-based; conditions: Homo sapiens, HepG2, 48 h, read-out: IC50 ± SD, Hep-G2
Procedure: as §1, §2
as §3, with “To investigate the anticancer activity of indazole derivatives, A549, K562, PC3, and Hep-G2 cells were treated with targets compounds respectively for 48 h in a range of concentrations (from 0.625 to 10 μM) and subjected to a proliferation assay using the MTT assay. Exponentially” for “Exponentially”
as §4

[1] = Table 2, read-out: IC50 ± SD, PC-3
[2] = Table 1, read-out: IC50 ± SD, PC-3

Row | Compound | IC50 (PC-3 cells; [1]) [µM] | melting point [°C] | IC50 (A549 cells; Table 2, 48 h) [µM] | IC50 (K562 cells; Table 2, 48 h) [µM] | IC50 (Hep-G2 cells; Table 2, 48 h) [µM] | IC50 (PC-3 cells; [2]) [µM] | IC50 (A549 cells; Table 1, 48 h) [µM] | IC50 (K562 cells; Table 1, 48 h) [µM] | IC50 (Hep-G2 cells; Table 1, 48 h) [µM]
1 | O=C(CSc1ccc(F)cc1)Nc1n[nH]c2ccc(-c3cccc(F)c3)cc12 [5b] | – | – | – | – | – | 38.4 ± 24.1 | 5.25 ± 0.57 | 6.97 ± 0.99 | > 50
2 | O=C(CSc1cccc(Cl)c1)Nc1n[nH]c2ccc(-c3cc(F)cc(F)c3)cc12 [5n] | – | 193 to 194 | – | – | – | > 50 | 20 ± 1.19 | 7.25 ± 1.07 | 6.57 ± 0.13
3 | COc1ccc(SCC(=O)Nc2n[nH]c3ccc(-c4ccc(F)cc4)cc23)cc1 [5e] | – | – | – | – | – | 12.8 ± 3.09 | 7.23 ± 0.4 | > 50 | 8.2 ± 0.91
4 | O=C(CSc1ccccc1Br)Nc1n[nH]c2ccc(-c3cc(F)cc(F)c3)cc12 [5l] | – | 199 to 200 | – | – | – | > 50 | 14.1 ± 1.71 | 8.19 ± 1.43 | 14.9 ± 0.77
5 | O=C(CSc1ccncc1)Nc1n[nH]c2ccc(-c3cc(F)cc(F)c3)cc12 [5p] | – | – | – | – | – | 22.5 ± 9.13 | 16 ± 0.37 | 15.42 ± 0.15 | 7.14 ± 0.33
6 | O=C(CSc1ccc([N+](=O)[O-])cc1)Nc1n[nH]c2ccc(-c3ccc(Cl)c(F)c3)cc12 [5i] | – | 243 to 246 | – | – | – | 6.57 ± 1.1 | 4.43 ± 0.15 | 6.27 ± 1.22 | 5.5 ± 0.17
7 | O=C(CSc1ccccc1Br)Nc1n[nH]c2ccc(-c3cccc(F)c3)cc12 [5d] | – | – | – | – | – | 19.7 ± 2.38 | 16.6 ± 3.22 | 27.2 ± 0.66 | 45.9 ± 2.24
8 | O=C(CSc1ccc(Br)cc1)Nc1n[nH]c2ccc(-c3cccc(F)c3)cc12 [5c] | – | – | – | – | – | 60.7 ± 2.91 | 5.63 ± 0.59 | 9.33 ± 0.64 | 4.76 ± 0.63
9 | O=C(CSc1ccc(Cl)cc1)Nc1n[nH]c2ccc(-c3cc(F)cc(F)c3)cc12 [5m] | – | 200 to 202 | – | – | – | > 50 | 20.2 ± 3.14 | 13.1 ± 0.46 | 35.6 ± 4.21
10 | O=C(CSc1ncccn1)Nc1n[nH]c2ccc(-c3cc(F)cc(F)c3)cc12 [5q] | – | – | – | – | – | 7.81 ± 0.64 | 16.2 ± 1.46 | 14.3 ± 2.13 | 6.3 ± 0.03
11 | COc1ccc(SCC(=O)Nc2n[nH]c3ccc(-c4ccc(OC(F)(F)F)cc4)cc23)cc1 [5f] | – | 215 to 216 | – | – | – | 12.5 ± 4.55 | 4.48 ± 0.24 | > 50 | > 50
12 | O=C(CSc1ccc(Br)cc1)Nc1n[nH]c2ccc(-c3ccc(Cl)c(F)c3)cc12 [5h] | – | 267 to 268 | – | – | – | 13 ± 7.53 | 9.26 ± 0.37 | 14.3 ± 2.13 | 11.3 ± 0.75
13 | O=C(CSc1ccc([N+](=O)[O-])cc1)Nc1n[nH]c2ccc(-c3cc(F)cc(F)c3)cc12 [5o] | – | – | – | – | – | 12.5 ± 2.1 | 6.64 ± 0.47 | 8.09 ± 1.27 | 8.3 ± 0.56
14 | O=C(CSc1ccc(F)cc1)Nc1n[nH]c2ccc(-c3ccc(Cl)c(F)c3)cc12 [5g] | – | 178 to 200 | – | – | – | 18.6 ± 5.73 | 6.4 ± 0.26 | 10.3 ± 1.14 | 11.9 ± 0.72
15 | COc1ccc(SCC(=O)Nc2n[nH]c3ccc(-c4cc(F)cc(F)c4)cc23)cc1 [5j] | – | 204 to 205 | – | – | – | 14.7 ± 4.55 | 3.99 ± 0.16 | 8.49 ± 1.87 | 5.36 ± 0.25
16 | COc1ccc(SCC(=O)Nc2n[nH]c3ccc(-c4cccc(F)c4)cc23)cc1 [compound 5a] | – | – | – | – | – | 15.5 ± 1.33 | 4.66 ± 0.45 | 9.32 ± 0.59 | 12.7 ± 1.31

Next, values leading:

Row | IC50 (PC-3 cells; [1]) [µM] | melting point [°C] | IC50 (A549 cells; Table 2, 48 h) [µM] | IC50 (K562 cells; Table 2, 48 h) [µM] | IC50 (Hep-G2 cells; Table 2, 48 h) [µM] | IC50 (PC-3 cells; [2]) [µM] | IC50 (A549 cells; Table 1, 48 h) [µM] | IC50 (K562 cells; Table 1, 48 h) [µM] | IC50 (Hep-G2 cells; Table 1, 48 h) [µM] | Compound
17 | 2.89 ± 0.16 | 200 to 201 | 12.9 ± 0.21 | 14 ± 0.49 | 7.65 ± 3.34 | – | – | – | – | O=C(CN1CCN(c2ccncc2)CC1)Nc1n[nH]c2ccc(-c3cc(F)cc(F)c3)cc12 [6l]
18 | 27.7 ± 16.9 | 195 to 197 | 17.6 ± 4.11 | > 50 | 20 ± 3.04 | – | – | – | – | O=C(CN1CCN(c2ccncc2)CC1)Nc1n[nH]c2ccc(-c3ccc(Cl)c(Cl)c3)cc12 [6u]
19 | 7.58 ± 1.01 | 179 to 181 | 20.3 ± 1.24 | 7.78 ± 0.1 | 3.87 ± 0.47 | – | – | – | – | O=C(CN1CCN(c2ccc(Cl)cc2)CC1)Nc1n[nH]c2ccc(-c3cc(F)cc(F)c3)cc12 [6j]
20 | 9.69 ± 0.26 | 200 to 201 | 19.9 ± 1.15 | 18.6 ± 2.14 | 1.69 ± 0.68 | – | – | – | – | COc1ccc(-c2ccc3[nH]nc(NC(=O)CN4CCN(c5ccc(Cl)c(Cl)c5)CC4)c3c2)cc1 [6b]
21 | 34.8 ± 4.37 | 174 to 176 | 18.7 ± 3.1 | 13.3 ± 1.4 | 4.76 ± 0.63 | – | – | – | – | COc1ccc(N2CCN(CC(=O)Nc3n[nH]c4ccc(-c5ccc(Cl)c(F)c5)cc34)CC2)cc1 [6n]
22 | 7.15 ± 0.14 | 140 to 141 | 12.8 ± 0.78 | 8.85 ± 0.26 | > 50 | – | – | – | – | COc1ccc(-c2ccc3[nH]nc(NC(=O)CN4CCN(Cc5ccc(Cl)cc5)CC4)c3c2)cc1 [6e]
23 | 6.81 ± 1.09 | 170 to 171 | 15.8 ± 2.98 | 6.61 ± 0.38 | 2.35 ± 0.96 | – | – | – | – | O=C(CN1CCN(c2ccc(C(F)(F)F)cc2)CC1)Nc1n[nH]c2ccc(-c3cc(F)cc(F)c3)cc12 [6g]
24 | 32.1 ± 2.26 | 163 to 165 | 13.6 ± 0.53 | > 50 | 2.38 ± 0.37 | – | – | – | – | O=C(CN1CCN(c2ccccc2Cl)CC1)Nc1n[nH]c2ccc(-c3ccc(Cl)c(F)c3)cc12 [6p]
25 | 17.6 ± 1.4 | 187 to 189 | 17.6 ± 4.11 | 18.2 ± 2.91 | > 50 | – | – | – | – | COc1ccc(-c2ccc3[nH]nc(NC(=O)CN4CCN(c5ccc(C(F)(F)F)cc5)CC4)c3c2)cc1 [6d]
26 | 10.7 ± 1.66 | 160 to 162 | 12.8 ± 2.66 | 5.61 ± 1.14 | 2.7 ± 0.47 | – | – | – | – | O=C(CN1CCN(c2ccc(F)cc2F)CC1)Nc1n[nH]c2ccc(-c3ccc(Cl)c(Cl)c3)cc12 [6q]
27 | 27.9 ± 26.1 | – | 15.8 ± 1.38 | 10 ± 0.94 | > 50 | – | – | – | – | O=C(CN1CCN(c2ccc(Br)cc2)CC1)Nc1n[nH]c2ccc(-c3ccc(Cl)c(Cl)c3)cc12 [6r]
28 | 20.3 ± 4.71 | 179 to 182 | 20.4 ± 8.08 | 10.8 ± 0.68 | 2.92 ± 1.41 | – | – | – | – | O=C(CN1CCN(c2ccc(Cl)cc2)CC1)Nc1n[nH]c2ccc(-c3ccc(Cl)c(Cl)c3)cc12 [6s]
29 | 12.8 ± 2.95 | 184 to 186 | 28.6 ± 2.52 | 13.2 ± 1.44 | 2.58 ± 0.42 | – | – | – | – | O=C(CN1CCN(c2ccc(Br)cc2)CC1)Nc1n[nH]c2ccc(-c3cc(F)cc(F)c3)cc12 [6i]
30 | 4.25 ± 0.13 | 180 to 182 | 7.83 ± 1.06 | 11.2 ± 0.56 | 1.61 ± 0.28 | – | – | – | – | O=C(CN1CCN(c2ccccc2)CC1)Nc1n[nH]c2ccc(-c3cc(F)cc(F)c3)cc12 [6k]
31 | 6.12 ± 0.1 | – | 8.21 ± 0.56 | 5.19 ± 0.29 | 5.62 ± 1.76 | – | – | – | – | O=C(CN1CCN(c2ccc(Cl)c(Cl)c2)CC1)Nc1n[nH]c2ccc(-c3cccc(F)c3)cc12 [compound 6a]
32 | 19.9 ± 2.71 | – | 22.6 ± 6.53 | 17.9 ± 3.14 | 1.51 ± 0.25 | – | – | – | – | O=C(CN1CCN(c2ccc(Cl)c(Cl)c2)CC1)Nc1n[nH]c2ccc(-c3ccc(Cl)c(F)c3)cc12 [6m]
33 | 41.7 ± 27.9 | – | > 50 | 11.9 ± 0.85 | 9.56 ± 0.84 | – | – | – | – | O=C(CN1CCN(c2ccc(Cl)c(Cl)c2)CC1)Nc1n[nH]c2ccc(-c3cc(F)cc(F)c3)cc12 [6f]
34 | 19 ± 0.58 | 194 to 197 | 40.9 ± 6.54 | 11.1 ± 0.69 | 1.98 ± 0.35 | – | – | – | – | N#Cc1ccc(N2CCN(CC(=O)Nc3n[nH]c4ccc(-c5ccc(Cl)c(Cl)c5)cc34)CC2)cc1 [6t]
35 | 8.63 ± 0.57 | – | 15.1 ± 1.36 | 13.2 ± 1.75 | 2.75 ± 0.78 | – | – | – | – | O=C(CN1CCN(c2ccc(F)cc2F)CC1)Nc1n[nH]c2ccc(-c3cc(F)cc(F)c3)cc12 [6h]
